{"source": "ChEMBL document CHEMBL4706749", "about": "“Development of Fluorescence Imaging Probes for Labeling COX-1 in Live Ovarian Cancer Cells” (ACS Med Chem Lett, 2021)", "key": {"[1]": {"assay": "Drug uptake in human COX1-negative HCA7 cells at 10 uM incubated for 30 mins by Hoechst-33258 staining based confocal laser scanning microscopic analysis", "type": "ADME, cell-based", "settings": "hca7, 0.5 h; call rule not given here"}, "[2]": {"assay": "Drug uptake in human OVCAR-3 cells by measuring perinuclear fluorescence staining at 10 uM incubated for 30 mins by Hoechst-33258 staining based confocal laser scanning microscopic analysis", "type": "ADME, cell-based", "settings": "ovcar-3, 0.5 h"}}}
{"smiles": "O=C(O)c1ccc(-n2nc(-c3ccco3)cc2-n2cc(CNc3ccc([N+](=O)[O-])c4nonc34)nn2)cc1", "values": [{"measurement": "Drug uptake", "setting": "[1]", "result": "Not Active"}, {"measurement": "Drug uptake", "setting": "[2]", "result": "Active"}]}
